In ChEMBL document CHEMBL5532655, “Discovery of (R)-4-(8-methoxy-2-methyl-1-(1-phenylethy)-1H-imidazo[4,5-c]quinnolin-7-yl)-3,5-dimethylisoxazole as a potent and selective BET inhibitor for treatment of acute myeloid leukemia (AML) guided by FEP calculation” (Eur J Med Chem, 2024):

Assays:
MV4-11 = assay: cells; details: Homo sapiens, MV4-11, 48 h
Description: Antiproliferative activity against human MV4-11 cells assessed as inhibition of cell growth incubated for 48 hrs by MTT assay

MOLM-13 = assay: cells; details: Homo sapiens, MOLM-13, 48 h
Description: Antiproliferative activity against human MOLM-13 cells assessed as inhibition of cell growth incubated for 48 hrs by MTT assay

[1] = target: Transcription initiation factor TFIID subunit 1 (Homo sapiens) (UniProt P21675); details: time 30.0 min
Transcription initiation factor TFIID subunit 1 (Homo sapiens), sequence (P21675 whole entry): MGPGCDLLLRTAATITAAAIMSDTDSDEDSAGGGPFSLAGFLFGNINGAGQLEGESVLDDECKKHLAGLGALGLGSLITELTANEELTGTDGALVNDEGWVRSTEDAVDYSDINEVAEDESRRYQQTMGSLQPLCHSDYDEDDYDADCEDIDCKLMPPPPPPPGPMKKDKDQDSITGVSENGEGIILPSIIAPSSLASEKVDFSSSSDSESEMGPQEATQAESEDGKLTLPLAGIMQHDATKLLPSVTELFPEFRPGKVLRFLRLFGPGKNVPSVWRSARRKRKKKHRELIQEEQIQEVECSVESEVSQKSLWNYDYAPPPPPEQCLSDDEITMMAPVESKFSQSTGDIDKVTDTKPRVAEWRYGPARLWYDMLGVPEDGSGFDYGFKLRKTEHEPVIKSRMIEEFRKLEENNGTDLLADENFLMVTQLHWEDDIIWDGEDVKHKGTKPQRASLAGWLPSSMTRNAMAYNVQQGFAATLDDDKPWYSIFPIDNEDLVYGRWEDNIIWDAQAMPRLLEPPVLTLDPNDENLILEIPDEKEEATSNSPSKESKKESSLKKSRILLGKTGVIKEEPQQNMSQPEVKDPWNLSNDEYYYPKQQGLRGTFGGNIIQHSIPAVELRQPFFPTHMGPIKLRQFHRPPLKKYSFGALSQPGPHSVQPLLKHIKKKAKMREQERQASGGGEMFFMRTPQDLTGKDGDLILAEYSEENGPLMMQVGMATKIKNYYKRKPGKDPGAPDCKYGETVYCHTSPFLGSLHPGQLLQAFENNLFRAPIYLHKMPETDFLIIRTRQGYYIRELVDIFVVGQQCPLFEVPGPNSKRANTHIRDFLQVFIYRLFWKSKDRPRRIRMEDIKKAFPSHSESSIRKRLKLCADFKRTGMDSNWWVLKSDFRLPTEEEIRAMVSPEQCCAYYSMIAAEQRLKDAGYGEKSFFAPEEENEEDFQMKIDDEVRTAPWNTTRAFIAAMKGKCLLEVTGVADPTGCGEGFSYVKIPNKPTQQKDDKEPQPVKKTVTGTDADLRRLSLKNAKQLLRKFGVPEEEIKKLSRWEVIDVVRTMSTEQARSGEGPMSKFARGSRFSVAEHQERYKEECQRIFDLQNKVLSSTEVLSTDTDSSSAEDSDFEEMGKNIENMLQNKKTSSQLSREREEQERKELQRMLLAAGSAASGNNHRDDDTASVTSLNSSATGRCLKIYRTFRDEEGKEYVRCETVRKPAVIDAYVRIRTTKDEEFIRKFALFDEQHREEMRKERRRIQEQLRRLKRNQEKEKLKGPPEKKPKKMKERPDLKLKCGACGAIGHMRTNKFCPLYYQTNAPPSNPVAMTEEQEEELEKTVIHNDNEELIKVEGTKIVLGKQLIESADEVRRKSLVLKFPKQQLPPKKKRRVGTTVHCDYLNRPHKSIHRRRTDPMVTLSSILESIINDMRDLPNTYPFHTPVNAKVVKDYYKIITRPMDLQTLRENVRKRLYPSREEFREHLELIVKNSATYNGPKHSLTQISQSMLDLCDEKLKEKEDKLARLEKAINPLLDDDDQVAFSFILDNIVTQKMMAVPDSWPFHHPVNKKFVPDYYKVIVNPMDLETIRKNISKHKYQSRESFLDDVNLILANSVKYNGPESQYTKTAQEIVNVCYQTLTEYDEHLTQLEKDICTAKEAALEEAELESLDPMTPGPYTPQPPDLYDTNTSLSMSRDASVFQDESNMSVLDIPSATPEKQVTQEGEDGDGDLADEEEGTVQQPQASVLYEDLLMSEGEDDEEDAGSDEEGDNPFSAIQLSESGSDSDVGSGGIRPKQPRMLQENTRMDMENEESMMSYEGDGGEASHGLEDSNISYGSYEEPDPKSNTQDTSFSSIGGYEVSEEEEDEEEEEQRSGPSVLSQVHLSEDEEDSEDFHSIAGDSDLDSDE

Homo sapiens [2] = species on record: Homo sapiens; details: time 30.0 min
[3] = target: Bromodomain adjacent to zinc finger domain protein 2B (Homo sapiens) (UniProt Q9UIF8); assay: Binding affinity to BAZ2B (unknown origin) using biotinylated histone peptide H4 as substrate at 1 uM incubated for 2 hrs by AlphaScreen assay relative to control
Homo sapiens [4] = species on record: Homo sapiens; assay: Binding affinity to PHIP2 (unknown origin) using biotinylated histone peptide H4 as substrate at 1 uM incubated for 2 hrs by AlphaScreen assay relative to control
[5] = target: Histone acetyltransferase p300 (Homo sapiens) (UniProt Q09472); details: time 30.0 min
Histone acetyltransferase p300 (Homo sapiens), sequence (Q09472 whole entry): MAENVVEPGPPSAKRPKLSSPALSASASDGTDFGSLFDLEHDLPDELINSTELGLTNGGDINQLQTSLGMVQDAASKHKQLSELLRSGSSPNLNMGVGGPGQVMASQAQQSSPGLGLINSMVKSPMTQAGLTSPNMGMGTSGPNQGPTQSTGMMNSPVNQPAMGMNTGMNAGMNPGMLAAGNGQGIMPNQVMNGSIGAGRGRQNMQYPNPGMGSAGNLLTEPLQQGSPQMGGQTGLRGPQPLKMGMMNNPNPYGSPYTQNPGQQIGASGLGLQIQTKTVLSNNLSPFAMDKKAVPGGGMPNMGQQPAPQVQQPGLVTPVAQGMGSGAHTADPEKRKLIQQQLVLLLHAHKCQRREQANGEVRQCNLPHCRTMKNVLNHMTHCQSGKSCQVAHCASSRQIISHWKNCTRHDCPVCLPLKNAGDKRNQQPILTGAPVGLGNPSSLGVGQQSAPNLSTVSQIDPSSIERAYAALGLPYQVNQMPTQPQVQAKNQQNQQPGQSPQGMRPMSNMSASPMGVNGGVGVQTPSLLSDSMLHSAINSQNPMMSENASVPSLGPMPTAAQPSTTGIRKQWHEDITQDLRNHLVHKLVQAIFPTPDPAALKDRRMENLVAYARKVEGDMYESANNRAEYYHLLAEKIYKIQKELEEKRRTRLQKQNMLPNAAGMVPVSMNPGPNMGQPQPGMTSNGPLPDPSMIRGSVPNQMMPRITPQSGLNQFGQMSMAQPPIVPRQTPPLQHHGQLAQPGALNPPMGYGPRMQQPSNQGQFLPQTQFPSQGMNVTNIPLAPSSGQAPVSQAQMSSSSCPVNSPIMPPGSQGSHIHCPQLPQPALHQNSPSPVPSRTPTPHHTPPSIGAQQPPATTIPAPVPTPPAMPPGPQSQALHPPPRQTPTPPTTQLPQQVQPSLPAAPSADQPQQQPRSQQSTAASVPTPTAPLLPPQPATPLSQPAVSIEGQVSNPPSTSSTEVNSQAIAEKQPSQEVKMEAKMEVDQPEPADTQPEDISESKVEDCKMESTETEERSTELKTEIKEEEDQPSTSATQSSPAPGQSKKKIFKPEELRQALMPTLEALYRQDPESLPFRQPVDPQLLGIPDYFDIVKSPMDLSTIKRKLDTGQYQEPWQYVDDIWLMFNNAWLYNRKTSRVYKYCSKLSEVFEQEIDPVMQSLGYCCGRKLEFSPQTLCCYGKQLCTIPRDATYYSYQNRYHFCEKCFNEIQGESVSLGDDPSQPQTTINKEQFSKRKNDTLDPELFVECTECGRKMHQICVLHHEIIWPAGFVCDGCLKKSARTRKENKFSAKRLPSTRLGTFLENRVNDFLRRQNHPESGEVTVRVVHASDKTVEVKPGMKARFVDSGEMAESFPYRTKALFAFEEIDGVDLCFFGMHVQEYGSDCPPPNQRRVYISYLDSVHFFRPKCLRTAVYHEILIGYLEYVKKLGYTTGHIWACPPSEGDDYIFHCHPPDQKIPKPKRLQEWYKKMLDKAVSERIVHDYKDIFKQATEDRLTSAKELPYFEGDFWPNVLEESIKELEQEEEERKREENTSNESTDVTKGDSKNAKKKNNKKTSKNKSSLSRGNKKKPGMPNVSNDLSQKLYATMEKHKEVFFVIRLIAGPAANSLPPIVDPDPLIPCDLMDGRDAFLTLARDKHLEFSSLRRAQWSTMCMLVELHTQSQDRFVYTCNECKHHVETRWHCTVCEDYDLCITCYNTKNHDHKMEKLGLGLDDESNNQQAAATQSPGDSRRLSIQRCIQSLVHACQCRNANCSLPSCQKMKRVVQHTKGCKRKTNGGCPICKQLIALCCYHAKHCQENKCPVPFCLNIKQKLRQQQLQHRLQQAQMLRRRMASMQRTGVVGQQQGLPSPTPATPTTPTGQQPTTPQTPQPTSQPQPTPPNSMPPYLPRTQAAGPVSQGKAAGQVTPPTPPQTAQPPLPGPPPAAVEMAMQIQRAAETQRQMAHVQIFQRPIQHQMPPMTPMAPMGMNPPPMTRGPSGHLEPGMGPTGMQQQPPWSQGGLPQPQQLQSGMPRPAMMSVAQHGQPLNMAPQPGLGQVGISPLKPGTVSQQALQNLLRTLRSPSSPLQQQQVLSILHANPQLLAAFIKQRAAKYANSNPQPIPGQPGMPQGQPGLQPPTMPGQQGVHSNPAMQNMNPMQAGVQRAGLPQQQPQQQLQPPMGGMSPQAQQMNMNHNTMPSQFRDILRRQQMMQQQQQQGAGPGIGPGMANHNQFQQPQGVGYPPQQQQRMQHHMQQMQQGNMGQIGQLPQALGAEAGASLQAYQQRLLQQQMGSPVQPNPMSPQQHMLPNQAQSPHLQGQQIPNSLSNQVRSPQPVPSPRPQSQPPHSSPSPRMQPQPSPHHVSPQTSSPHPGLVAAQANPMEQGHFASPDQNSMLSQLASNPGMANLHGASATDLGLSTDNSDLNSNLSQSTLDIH

[6] = target: CREB-binding protein (Homo sapiens) (UniProt Q92793); details: time 30.0 min
[7] = target: T1, Bromodomain-containing protein 7 (Homo sapiens) (UniProt Q9NPI1); details: time 30.0 min
T1 sequence (whole entry): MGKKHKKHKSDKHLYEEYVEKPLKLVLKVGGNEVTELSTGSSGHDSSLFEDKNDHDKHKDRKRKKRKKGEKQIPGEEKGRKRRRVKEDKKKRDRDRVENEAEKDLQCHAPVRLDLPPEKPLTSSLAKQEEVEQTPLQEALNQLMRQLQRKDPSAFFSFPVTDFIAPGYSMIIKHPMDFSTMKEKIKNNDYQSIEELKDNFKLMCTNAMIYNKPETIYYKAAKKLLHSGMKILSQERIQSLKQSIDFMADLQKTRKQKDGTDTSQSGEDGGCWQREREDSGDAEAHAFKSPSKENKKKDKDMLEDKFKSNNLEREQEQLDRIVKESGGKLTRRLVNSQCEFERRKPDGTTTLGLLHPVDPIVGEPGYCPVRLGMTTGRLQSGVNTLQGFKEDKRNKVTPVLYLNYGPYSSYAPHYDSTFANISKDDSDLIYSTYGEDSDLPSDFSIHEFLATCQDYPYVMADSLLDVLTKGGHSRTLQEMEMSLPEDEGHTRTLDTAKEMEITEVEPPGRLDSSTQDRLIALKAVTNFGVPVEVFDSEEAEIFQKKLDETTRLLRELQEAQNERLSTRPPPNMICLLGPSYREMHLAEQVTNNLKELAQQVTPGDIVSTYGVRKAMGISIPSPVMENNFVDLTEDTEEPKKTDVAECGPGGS

Peregrin (Homo sapiens) = target: T2, Peregrin (Homo sapiens) (UniProt P55201); assay: Binding affinity to BRPF1 (unknown origin) using biotinylated histone peptide H4 as substrate at 1 uM incubated for 2 hrs by AlphaScreen assay relative to control
T2 sequence (whole entry): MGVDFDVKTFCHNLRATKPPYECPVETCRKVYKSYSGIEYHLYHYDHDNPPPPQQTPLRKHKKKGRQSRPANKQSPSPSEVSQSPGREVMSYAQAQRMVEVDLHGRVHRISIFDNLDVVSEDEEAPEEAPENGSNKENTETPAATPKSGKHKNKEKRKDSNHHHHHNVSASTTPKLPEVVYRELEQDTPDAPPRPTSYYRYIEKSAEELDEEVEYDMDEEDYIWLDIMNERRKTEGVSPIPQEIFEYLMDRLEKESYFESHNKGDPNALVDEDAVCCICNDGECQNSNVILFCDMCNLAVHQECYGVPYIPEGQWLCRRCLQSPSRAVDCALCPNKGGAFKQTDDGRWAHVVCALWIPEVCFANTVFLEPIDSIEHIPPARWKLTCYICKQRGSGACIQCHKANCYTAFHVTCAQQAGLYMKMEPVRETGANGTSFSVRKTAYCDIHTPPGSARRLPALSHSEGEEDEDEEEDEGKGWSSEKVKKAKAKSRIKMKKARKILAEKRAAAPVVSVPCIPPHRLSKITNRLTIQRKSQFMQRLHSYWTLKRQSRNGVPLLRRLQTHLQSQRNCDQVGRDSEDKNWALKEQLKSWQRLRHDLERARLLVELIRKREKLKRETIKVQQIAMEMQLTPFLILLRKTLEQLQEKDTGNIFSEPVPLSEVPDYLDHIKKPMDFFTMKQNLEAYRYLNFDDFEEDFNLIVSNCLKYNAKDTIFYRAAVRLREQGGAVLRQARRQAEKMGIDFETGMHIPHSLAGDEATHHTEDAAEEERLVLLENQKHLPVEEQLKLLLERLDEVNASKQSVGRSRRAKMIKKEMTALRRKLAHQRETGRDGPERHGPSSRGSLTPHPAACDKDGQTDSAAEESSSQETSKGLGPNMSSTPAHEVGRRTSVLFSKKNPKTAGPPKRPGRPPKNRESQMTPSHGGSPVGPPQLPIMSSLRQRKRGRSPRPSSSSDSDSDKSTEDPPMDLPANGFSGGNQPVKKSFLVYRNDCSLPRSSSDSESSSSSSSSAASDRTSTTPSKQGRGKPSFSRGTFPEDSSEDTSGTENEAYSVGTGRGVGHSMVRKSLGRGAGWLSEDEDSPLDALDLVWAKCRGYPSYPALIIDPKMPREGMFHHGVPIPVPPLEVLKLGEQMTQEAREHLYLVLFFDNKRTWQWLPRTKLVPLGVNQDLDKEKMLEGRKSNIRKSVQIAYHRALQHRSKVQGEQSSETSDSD

[8] = target: Histone acetyltransferase KAT2B (Homo sapiens) (UniProt Q92831); details: time 30.0 min
Histone acetyltransferase KAT2B (Homo sapiens), sequence (Q92831 whole entry, looked up): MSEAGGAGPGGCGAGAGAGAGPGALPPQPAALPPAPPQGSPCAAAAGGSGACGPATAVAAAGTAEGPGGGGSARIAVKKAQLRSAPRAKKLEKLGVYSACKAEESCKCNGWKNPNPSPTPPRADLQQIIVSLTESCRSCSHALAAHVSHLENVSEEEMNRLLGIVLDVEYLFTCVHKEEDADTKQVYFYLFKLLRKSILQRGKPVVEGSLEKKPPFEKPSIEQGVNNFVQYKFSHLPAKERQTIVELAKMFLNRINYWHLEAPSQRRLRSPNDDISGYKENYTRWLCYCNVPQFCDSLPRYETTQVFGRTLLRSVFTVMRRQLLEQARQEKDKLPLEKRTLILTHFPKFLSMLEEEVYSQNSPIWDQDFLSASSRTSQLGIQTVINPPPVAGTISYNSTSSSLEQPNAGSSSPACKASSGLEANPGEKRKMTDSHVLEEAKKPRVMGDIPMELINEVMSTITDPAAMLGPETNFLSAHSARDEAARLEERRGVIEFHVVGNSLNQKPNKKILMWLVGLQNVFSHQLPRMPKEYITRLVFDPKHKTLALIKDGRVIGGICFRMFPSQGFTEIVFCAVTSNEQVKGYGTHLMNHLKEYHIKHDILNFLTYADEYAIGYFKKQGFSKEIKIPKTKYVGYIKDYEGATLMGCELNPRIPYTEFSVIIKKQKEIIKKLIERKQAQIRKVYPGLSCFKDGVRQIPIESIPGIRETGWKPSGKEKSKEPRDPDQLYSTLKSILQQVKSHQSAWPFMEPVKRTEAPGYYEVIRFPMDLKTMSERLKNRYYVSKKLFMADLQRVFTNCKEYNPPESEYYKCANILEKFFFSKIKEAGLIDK

| IC50 (MV4-11) [nM] | IC50 (MOLM-13) [nM] | ΔTm [1] [°C] | ΔTm (Homo sapiens [2]) [°C] | Activity [3] [%] | Activity (Homo sapiens [4]) [%] | ΔTm [5] [°C] | ΔTm [6] [°C] | ΔTm [7] [°C] | Activity (Peregrin (Homo sapiens)) [%] | ΔTm [8] [°C] | SMILES |
| --- | --- | --- | --- | --- | --- | --- | --- | --- | --- | --- | --- |
| 800 | 660 | 0 | 0 | < 30 | < 30 | 0 | 0 | 0 | < 30 | 0 | COc1cc2c(cc1-c1c(C)n[nH]c1C)ncc1nc(C)n([C@H](C)c3ccccc3)c12 |
| 190 | 430 | 0 | 0 | < 30 | < 30 | 5 | 5 | 0 | < 30 | 0 | COc1cc2c(cc1-c1c(C)noc1C)ncc1nc(C)n([C@H](C)c3ccccc3)c12 |
